# Test system: diarrhea-predominant IBS subjects
# Assay: Study S241.3.011: weekly diary questions on adequate relief
# Assay type: in vivo, human
# Details: 2 mg TID, ITT; for Number of subjects who were responders during the three-month treatment period: Adequate relief of IBS symptoms / Number of subjects who were responders during the three-month treatment period: Adequate relief of abdominal pain/discomfort / Number of subjects who were responders during the three-month treatment period: Adequate relief of abnormal bowel habits: observed case
# Procedure: Study S241.3.011 was a Phase III, double-blind, placebo-controlled, randomized, multinational study to investigate the safety and efficacy of 2 mg TID of cilansetron for a period of 12 weeks followed by a rerandomized, placebo-controlled four-week treatment period, in diarrhea-predominant IBS subjects. The study was conducted in six countries including the US. A total of 2115 subjects consented to participate, and 770 subjects were randomized. A total of 746 subjects were analyzed for efficacy and 755 subjects were analyzed for safety. Diagnosis and main criteria for inclusion were IBS subjects satisfying the Rome I criteria (1992); the diarrhea predominant sub-population of the Rome II criteria; and a minimum abdominal pain/discomfort, stool frequency and consistency determined during the run-in period. Subjects were treated with cilansetron 2 mg tablets given orally TID or matching placebo tablets given orally TID for 12 weeks followed by a rerandomized, placebo-controlled four-week treatment period.
# The primary efficacy parameter was the number of months that a subject was a responder for IBS symptoms (abdominal pain, abdominal discomfort, abnormal bowel habits) over the 12-week treatment period. A responder for a month (monthly responder) was defined as a subject who answered the weekly question with “yes” at least twice for that month. The two main secondary efficacy parameters were the monthly responder rates based on the “adequate relief” questions regarding abdominal pain/discomfort and abnormal bowel habits during the 12-week treatment period. The overall response rate and responder rate for the weekly diary questions on adequate relief at each month and all months, the adequate relief rate, the number of subjects with adequate relief by week, daily diary questions, IBS-QOL scores, and the interruption of activities were also assessed. Safety was evaluated by physical examination, ECG, vital signs, laboratory evaluations, concomitant medications, and AEs.
# Subjects who were initially randomized to the cilansetron 2 mg TID group and rerandomized to placebo, will be referred to as the C/P treatment group; subjects initially randomized to the placebo group and rerandomized to placebo will be referred to as the P/P treatment group; the P/C and C/C treatment group nomenclature follow the same principle. Of the 591 subjects who completed the three-month treatment period, 576 subjects were rerandomized and thus divided into the following treatment groups: 150 subjects in the C/C treatment group, 140 subjects in the C/P treatment group, 136 subjects in the P/C treatment group, and 150 subjects in the P/P treatment group. Of the 576 subjects rerandomized, a higher percentage of subjects in the C/C treatment group (99%) completed the study compared with the C/P (95%), P/C (93%), and the P/P (95%) treatment groups.
# Studies S24 1.3.OO6, S24 1.3.0 1 1, and S24 1.3.009 used the following efficacy measurements: • The subjects answered the following three questions with “yes” or “no” using a phone diary at the end of each week: • a) During the last week, did you experience adequate relief of your IBS symptoms, such as abdominal pain, abdominal discomfort, abnormal bowel habits? • b) During the last week, did you experience adequate relief of your abdominal pain and/or discomfort? • c) During the last week, did you experience adequate relief of your abnormal bowel habits? • The subjects rated the following symptoms using the phone diary at the end of each day: • abdominal pain/discomfort (five-point scale); • stool consistency (seven-point Bristol Stool Scale); • stool frequency (number of bowel movements each day); • urgency (five-point scale); • straining (yes or no); • feeling of incomplete defecation (yes or no); • bloating or feeling of abdominal distension (five-point scale). • In Studies S241 A006 and S241.3.009, subjects completed the IBS-QOL Survey at Baseline (Day 1) and at the end of treatment. […]
# [1] = Duration of IBS: >24 months to ≦48 months, monthly LOCF imputation
# [2] = Duration of IBS: >24 months to ≦48 months
# [3] = Duration of IBS: >48 months to ≦120 months, monthly LOCF imputation
# [4] = Duration of IBS: >48 months to ≦120 months
# [5] = Duration of IBS: >120 months, monthly LOCF imputation
# [6] = Duration of IBS: ≦24 months, monthly LOCF imputation
# [7] = Female subjects, three-month treatment period, monthly LOCF
smiles,measurement,setting,value
"Cc1nccn1C[C@H]1CCc2c(c3cccc4c3n2CCC4)C1=O [Cilansetron, (R)-(−)-4,5,6,8,9,10-hexahydro-10-[(2-methyl-1H-imidazol-1-yl)methyl]-11H-pyrido-[3,2,1-jk]-carbazol-11-one]","Number of months a subject was a responder during the three-month treatment period: Abnormal bowel habits, Two months",[1],10 (14) n (%)
same,"Number of months a subject was a responder during the three-month treatment period: Abnormal bowel habits, Zero months",[1],20 (28) n (%)
same,"Number of months a subject was a responder during the three-month treatment period: IBS symptoms, One month",[1],7 (10) n (%)
same,"Number of months a subject was a responder during the three-month treatment period: IBS symptoms, Three months",[1],32 (44) n (%)
same,"Number of months a subject was a responder during the three-month treatment period: IBS symptoms, Two months",[1],16 (22) n (%)
same,"Number of months a subject was a responder during the three-month treatment period: IBS symptoms, Zero months",[1],17 (24) n (%)
same,Number of subjects who were responders during the three-month treatment period: Adequate relief of IBS symptoms,[2],44 (61) n (%)
same,Number of subjects who were responders during the three-month treatment period: Adequate relief of abdominal pain/discomfort,[2],44 (61) n (%)
same,Number of subjects who were responders during the three-month treatment period: Adequate relief of abnormal bowel habits,[2],43 (60) n (%)
same,"Number of months a subject was a responder during the three-month treatment period: Abdominal pain/discomfort, One month",[3],15 (11) n (%)
same,"Number of months a subject was a responder during the three-month treatment period: Abdominal pain/discomfort, Three months",[3],61 (46) n (%)
same,"Number of months a subject was a responder during the three-month treatment period: Abdominal pain/discomfort, Two months",[3],23 (17) n (%)
same,"Number of months a subject was a responder during the three-month treatment period: Abdominal pain/discomfort, Zero months",[3],34 (26) n (%)
same,"Number of months a subject was a responder during the three-month treatment period: Abnormal bowel habits, One month",[3],15 (11) n (%)
same,"Number of months a subject was a responder during the three-month treatment period: Abnormal bowel habits, Three months",[3],50 (38) n (%)
same,"Number of months a subject was a responder during the three-month treatment period: Abnormal bowel habits, Two months",[3],29 (22) n (%)
same,"Number of months a subject was a responder during the three-month treatment period: Abnormal bowel habits, Zero months",[3],39 (29) n (%)
same,"Number of months a subject was a responder during the three-month treatment period: IBS symptoms, One month",[3],19 (14) n (%)
same,"Number of months a subject was a responder during the three-month treatment period: IBS symptoms, Three months",[3],50 (38) n (%)
same,"Number of months a subject was a responder during the three-month treatment period: IBS symptoms, Two months",[3],26 (20) n (%)
same,"Number of months a subject was a responder during the three-month treatment period: IBS symptoms, Zero months",[3],38 (29) n (%)
same,Number of subjects who were responders during the three-month treatment period: Adequate relief of IBS symptoms,[4],69 (52) n (%)
same,Number of subjects who were responders during the three-month treatment period: Adequate relief of abdominal pain/discomfort,[4],79 (59) n (%)
same,Number of subjects who were responders during the three-month treatment period: Adequate relief of abnormal bowel habits,[4],69 (52) n (%)
same,"Number of months a subject was a responder during the three-month treatment period: Abdominal paint/discomfort, One month",[5],13 (13) n (%)
same,"Number of months a subject was a responder during the three-month treatment period: Abdominal paint/discomfort, Three months",[5],39 (38) n (%)
same,"Number of months a subject was a responder during the three-month treatment period: Abdominal paint/discomfort, Two months",[5],18 (18) n (%)
same,"Number of months a subject was a responder during the three-month treatment period: Abdominal paint/discomfort, Zero months",[5],32 (31) n (%)
same,"Number of months a subject was a responder during the three-month treatment period: Abnormal bowel habits, One month",[5],17 (17) n (%)
same,"Number of months a subject was a responder during the three-month treatment period: Abnormal bowel habits, Three months",[5],37 (36) n (%)
same,"Number of months a subject was a responder during the three-month treatment period: Abnormal bowel habits, Two months",[5],12 (12) n (%)
same,"Number of months a subject was a responder during the three-month treatment period: Abnormal bowel habits, Zero months",[5],36 (35) n (%)
same,"Number of months a subject was a responder during the three-month treatment period: IBS symptoms, One month",[5],17 (17) n (%)
same,"Number of months a subject was a responder during the three-month treatment period: IBS symptoms, Three months",[5],38 (37) n (%)
same,"Number of months a subject was a responder during the three-month treatment period: IBS symptoms, Two months",[5],12 (12) n (%)
same,"Number of months a subject was a responder during the three-month treatment period: IBS symptoms, Zero months",[5],35 (34) n (%)
same,Number of subjects who were responders during the three-month treatment period: Adequate relief of IBS symptoms,Duration of IBS: >120 months,48 (47) n (%)
same,Number of subjects who were responders during the three-month treatment period: Adequate relief of abdominal pain/discomfort,Duration of IBS: >120 months,55 (54) n (%)
same,Number of subjects who were responders during the three-month treatment period: Adequate relief of abnormal bowel habits,Duration of IBS: >120 months,46 (45) n (%)
same,"Number of months a subject was a responder during the three-month treatment period: Abdominal pain/discomfort, One month",[6],7 (10) n (%)
same,"Number of months a subject was a responder during the three-month treatment period: Abdominal pain/discomfort, Three months",[6],27 (39) n (%)
same,"Number of months a subject was a responder during the three-month treatment period: Abdominal pain/discomfort, Two months",[6],16 (23) n (%)
same,"Number of months a subject was a responder during the three-month treatment period: Abdominal pain/discomfort, Zero months",[6],20 (29) n (%)
same,"Number of months a subject was a responder during the three-month treatment period: Abnormal bowel habits, One month",[6],8 (11) n (%)
same,"Number of months a subject was a responder during the three-month treatment period: Abnormal bowel habits, Three months",[6],30 (43) n (%)
same,"Number of months a subject was a responder during the three-month treatment period: Abnormal bowel habits, Two months",[6],15 (21) n (%)
same,"Number of months a subject was a responder during the three-month treatment period: Abnormal bowel habits, Zero months",[6],17 (24) n (%)
same,"Number of months a subject was a responder during the three-month treatment period: IBS symptoms, One month",[6],11 (16) n (%)
same,"Number of months a subject was a responder during the three-month treatment period: IBS symptoms, Three months",[6],28 (40) n (%)
same,"Number of months a subject was a responder during the three-month treatment period: IBS symptoms, Two months",[6],16 (23) n (%)
same,"Number of months a subject was a responder during the three-month treatment period: IBS symptoms, Zero months",[6],15 (21) n (%)
same,Number of subjects who were responders during the three-month treatment period: Adequate relief of IBS symptoms,Duration of IBS: ≦24 months,45 (64) n (%)
same,Number of subjects who were responders during the three-month treatment period: Adequate relief of abdominal pain/discomfort,Duration of IBS: ≦24 months,43 (61) n (%)
same,Number of subjects who were responders during the three-month treatment period: Adequate relief of abnormal bowel habits,Duration of IBS: ≦24 months,45 (64) n (%)
same,Number of months a subject was a responder: One month (Abdominal pain/discomfort),[7],30 (11) n (%)
same,Number of months a subject was a responder: One month (Abnormal bowel habits),[7],34 (13) n (%)
same,Number of months a subject was a responder: One month (IBS symptoms),[7],35 (13) n (%)
same,Number of months a subject was a responder: Three months (Abdominal pain/discomfort),[7],101 (39) n (%)

# — patent publication US20090176817A1, “Method of Treatment of Diarrhea-Predominant Irritable Bowel Syndrome in a Subject” (priority 2005, published 2009)
